# Tested on: maximal (tonic hindlimb extension) electroshock seizures in male rats (Sprague Dawley)
# Experiment: Rat MEST (maximal electroshock seizure threshold) test
# Type: in vivo
# Details: 2 mg/kg p.o., suspension in methyl cellulose, one hour post dosing, statistically significant
# Procedure: The maximal electroshock seizure (MEST) threshold test in rodents is particularly sensitive for detecting potential anticonvulsant properties ^1. In this model, anticonvulsant agents elevate the threshold to electrically-induced seizures whilst proconvulsants lower the seizure threshold.
# The threshold for maximal (tonic hindlimb extension) electroshock seizures in male rats (Sprague Dawley, 80-150 g, 6 weeks old) was determined by a Hugo Sachs Electronik stimulator which delivered a constant current (0.3 sec duration; from 1-300mA in steps of 5-20mA). The procedure is similar to that outlined above for mouse and full details are as published by Upton et al.^4
# The percentage increase or decrease in CC50 for each group compared to the control is calculated.
# Drugs are suspended in 1% methyl cellulose.
smiles,measurement,value
"COc1cc(C(C)C)c(C#N)cc1C(=O)Nc1cccc2c1CCN(C)C2.Cl [Example 10, N-(2-Methyl-1,2,3,4-tetrahydroisoquinolin-5-yl)-5-cyano-2-methoxy-4-iso-propylbenzamide, hydrochloride]",increase in seizure threshold,152%
"CCOc1cc(C(C)C)c(C(F)(F)F)cc1C(=O)Nc1cccc2c1CCN(C)C2 [Example 11, N-(2-Methyl-1,2,3,4-tetrahydroisoquinolin-5-yl)-2-ethoxy-4-iso-propyl-5-trifluoromethylbenzamide]",increase in seizure threshold,92%
"CCOc1cc(C(C)C)c(C#N)cc1C(=O)Nc1cccc2c1CCN(C)C2.Cl [Example 16, N-(2-Methyl-1,2,3,4-tetrahydroisoquinolin-5-yl)-5-cyano-2-ethoxy-4-iso-propylbenzamide, hydrochloride]",increase in seizure threshold,336%
"CCOc1cc(OC)c(C(=O)Nc2cccc3c2CCN(C)C3)cc1Br [Example 17, N-(2-Methyl-1,2,3,4-tetrahydroisoquinolin-5-yl)-5-bromo-4-ethoxy-2-methoxybenzamide]",increase in seizure threshold,403%
"COc1cc(OC)c(C(=O)Nc2cccc3c2CCN(C)C3)cc1C#N.Cl [Example 23, N-(2-Methyl-1,2,3,4-tetrahydroisoquinolin-5-yl)-2,4-dimethoxy-5-cyanobenzamide, hydrochloride]",increase in seizure threshold,107%

# From patent US20010025045A1, “Substituted isoquinoline derivatives and their use as anticonvulsants” (SmithKline Beecham p.l.c., priority 1997, published 2001)
